Experimental data from ChEMBL document CHEMBL3044724, “Differential efficacy of three commonly used pyrethroids against laboratory and field-collected larvae and adults of Helicoverpa zea (Lepidoptera: Noctuidae) and significance for pyrethroid resistance management” (2010).

Columns and labels:
Format in all cases: functional
Helicoverpa zea [1] = test: Insecticidal activity against F1 generation of adult of Helicoverpa zea (corn earworm) assessed as mortality per insecticide vial after 24 hr
Helicoverpa zea [2] = test: Insecticidal activity against third-instar of Helicoverpa zea (corn earworm) assessed as mortality per insecticide vial after 48 hr
Helicoverpa zea [3] = test: Insecticidal activity against F1 generation of third-instar of Helicoverpa zea (corn earworm) assessed as mortality per insecticide vial after 48 hr
Helicoverpa zea [4] = test: Resistant ratio, ratio of LC50 for F1 generation of adult of Helicoverpa zea (corn earworm) to LC50 for adult of corn earworm
Helicoverpa zea [5] = test: Resistant ratio, ratio of LC50 for F1 generation of third-instar of Helicoverpa zea (corn earworm) to LC50 for third-instar of corn earworm
Helicoverpa zea [6] = test: Resistant ratio, ratio of LC90 for F1 generation of third-instar of Helicoverpa zea (corn earworm) to LC90 for third-instar of corn earworm
Helicoverpa zea [7] = test: Insecticidal activity against adult of Helicoverpa zea (corn earworm) assessed as mortality per insecticide vial after 24 hr
Helicoverpa zea [8] = test: Resistant ratio, ratio of LC90 for F1 generation of adult of Helicoverpa zea (corn earworm) to LC90 for adult of corn earworm

| Compound | LC50 (Helicoverpa zea [1]) [µg] | LC90 (Helicoverpa zea [1]) [µg] | LC50 (Helicoverpa zea [2]) [µg] | LC90 (Helicoverpa zea [2]) [µg] | LC50 (Helicoverpa zea [3]) [µg] | LC90 (Helicoverpa zea [3]) [µg] | RatioLC50 (Helicoverpa zea [4]) | RatioLC50 (Helicoverpa zea [5]) | Ratio (Helicoverpa zea [6]) | LC50 (Helicoverpa zea [7]) [µg] | LC90 (Helicoverpa zea [7]) [µg] | Ratio (Helicoverpa zea [8]) |
| --- | --- | --- | --- | --- | --- | --- | --- | --- | --- | --- | --- | --- |
| Cc1c(COC(=O)[C@@H]2[C@H](/C=C(\Cl)C(F)(F)F)C2(C)C)cccc1-c1ccccc1 [BIFENTHRIN] | 1.54 | 3.01 | 0.13 | 0.38 | 1.25 | 5.8 | 9.28 | 9.41 | 15.22 | 0.17 | 0.51 | 5.9 |
| CC(C)[C@H](C(=O)O[C@H](C#N)c1cccc(Oc2ccccc2)c1)c1ccc(Cl)cc1 | 2.3 | 5.9 | 0.4 | 1.45 | 1.51 | 4.59 | 4.67 | 3.75 | 3.17 | 0.49 | 1.35 | 4.37 |
| CC1(C)C(C=C(Cl)Cl)C1C(=O)OC(C#N)c1cccc(Oc2ccccc2)c1 (stereo not drawn) [ALPHA-CYPERMETHRIN] | 2.89 | 7.12 | 0.37 | 1.22 | 1.71 | 7.68 | 4.16 | 4.68 | 6.28 | 0.7 | 1.86 | 3.82 |
